“Also recorded” adds a separate entry of the source.
How the values were obtained:
[1] = tested on: OCI-AML3; test: XTT cell viability assay, OCI-AML3 AML cells; format: cell-based, human; settings: Homo sapiens, OCI-AML-3, 48 h, SD 10%, mean of three experiments, read-out: IC50 L3 (AML)
Outline: (§1)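 Read-out: formazan absorbance at 490 nm after XTT addition, proportional to metabolically active (viable, proliferating) cells. Run in quadruplicate.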

[2] = tested on: SKM1; test: XTT cell viability assay, SKM1 MDS cells; format: cell-based, human; settings: Homo sapiens, SKM-1, 48 h, SD 10%, mean of three experiments, read-out: IC50 SK (MDS)
Outline: as §1

[3] = tested on: K562; test: XTT cell viability assay, K562 CML cells; format: cell-based, human; settings: Homo sapiens, K562, 48 h, SD 10%, mean of three experiments
Outline: as §1

[4] = tested on: primary normal kidney cells (15S); test: Cell viability, primary normal kidney cells; format: cell-based
Protocol: (§2) Fifty microliters of sodium 3′-[1-phenylaminocarbonyl)-3,4-tetrazolium]-bis(4-methoxy-6-nitro) benzene sulfonic acid hydrate (XTT) reagent was added to each well. The assay is based on the cleavage of the yellow tetrazolium salt XTT to form an orange formazan dye by metabolically active cells. This bio-reduction occurs in viable cells only and is related to NAD(P)H production through glycolysis. Therefore, the amount of formazan dye measured at 490 nm directly correlated with the number of metabolically active cells reflecting cell proliferation and viability. Each assay was performed in quadruplicate.
(§3) For the experiments with C29, we confirmed all the results by evaluating the cell viability. Cell viability and cell death was assessed using the ADAM-MC apparatus (NanoEnTek, Guro-gu, Seoul, Korea) based on fluorescent propidium iodide staining according to the manufacturer's instructions.
(§4) To determine the selectivity of the activity of the substances tested, the selectivity index (SI) was calculated according to the equation previously described where SI = IC50 of a compound in a normal cell line/IC50 of the same compound in cancer cell line. The IC50 is the concentration required to kill 50% of the cell population.

[5] = tested on: uveal melanoma cells (Mel202); test: Cell viability, uveal melanoma cells; format: cell-based
Protocol: as §2, §4

[6] = tested on: primary kidney tumor cells (TF); test: Cell viability, primary kidney tumor cells TF; format: cell-based
Protocol: as §2, §3, §4

[7] = tested on: HuVEC; test: Boyden chamber migration assay; format: cell-based, human; settings: CXCL7 50 ng/ml, 2.5 µmol/L compound
Protocol: CXCL7 or VEGFA-stimulated chemotaxis assays were monitored using modified Boyden chambers containing polycarbonate membranes (8-μm pores, Transwell; Corning, Sigma). Cells were seeded onto the upper side of the filters and chambers were placed on 24-well plates containing CXCL7 (50ng/ml) or VEGFA (50ng/ml). Cell migration was followed for 24 h at 37°C in 5% CO2. Migratory cells on the lower membrane surface were fixed in 3% paraformaldehyde, stained with 0.1% crystal violet.

[8] = tested on: HuVEC; test: XTT cell viability assay, HuVEC; format: cell-based, human; settings: 48 h, CXCL5 or CXCL7 100 ng/ml
Protocol: as §2

[9] = tested on: cisplatin-resistant CAL27 cells (CAL27R); test: XTT cell viability assay, cisplatin-resistant CAL27 cells; format: cell-based, human; settings: 1 to 10 µM 48 h, 2.5 µM 24 to 96 h
Protocol: as §2

[10] = tested on: panel of human tumor cell lines; test: XTT screening on a panel of tumor cell lines; format: cell-based; settings: Homo sapiens; read-out: IC50 values for several cancer cell lines
Protocol: as §2

[11] = tested on: ERK/MAP Kinase and PI3K/AKT signaling pathways; test: p-ERK and p-AKT immunoblotting in RCC and HNSCC cells; format: cell-based, human; settings: naive and resistant RCC and HNSCC cells, 2.5 µM, 1 h to 48 h
Protocol: Cells were lysed in buffer containing 3% SDS, 10% glycerol and 0.825 mM Na2HPO4. 30 to 50 μg of proteins separated on 10% SDS-PAGE, transferred onto a PVDF membrane and then exposed to the appropriate antibodies. Proteins were visualized with the ECL system using horseradish peroxidase-conjugated anti-rabbit or anti-mouse antibodies.

[12] = tested on: caspase 3; test: Caspase 3 activity assay; format: cell-based, human; settings: 786, 786R, CAL27, CAL27R; 2.5 and 5 µM, 48 h
Protocol: Caspase assays have already been described. Briefly, the caspase 3 activity was assessed in quadruplicate using z-DEVD-AMC as substrate and the fluorescence were assessed.

[13] = tested on: normal cells (15S); test: FACS analysis of apoptotic markers, normal cells; format: cell-based; settings: C29 at 1 µmol/L
Protocol: Apoptosis analysis: After stimulation, cells were washed with ice-cold PBS and were stained with the annexin-V-fluo staining kit (Roche, Meylan, France) according to the manufacturer's procedure. Fluorescence was measured using the FL2 (AV) and FL3 (propidium iodide, PI) channels of a fluorescence-activated cell sorter apparatus (Calibur cytometer).

[14] = In vitro (in cellulo) stability assay; format: in vitro ADME, human; settings: 786-O cells, 2.5 µM, 24 h at room temperature, UPLCMS/MS
Protocol: The in vitro stability was determined as followed: 786-O cells were treated with 2.5 µM of compound C29 for the defined time, then lysed with methanol. The lysates were filtered and analyzed by UPLCMS/MS.

[15] = tested on: A498 cells; test: Ectopic model of RCC (A498 xenograft); format: in vivo, nude (nu/nu) female mice
Protocol: One microgram of total RNA was used for the reverse transcription, using the QuantiTect Reverse Transcription kit (QIAGEN, Hilden, Germany), with blend of oligo (dT) and random primers to prime first-strand synthesis. SYBR master mix plus (Eurogentec) was used for qPCR. The mRNA level was normalized to 36B4 mRNA. The sequences of oligo nucleotides used in our experiments are describe in Table S1.
These studies were carried out in strict accordance with the recommendations in the Guide for the Care and Use of Laboratory Animals. Our experiments were approved by the ''Comité National Institutionnel d'Ethique pour l'Animal de Laboratoire'' (reference: PEA-255 and PEA-277). Cells were injected subcutaneously into the flank of 5-week-old nude (nu/nu) female mice (Janvier). When the tumor reached 100 mm^3, mice were treated. The tumor volume was determined with a caliper (v = L*l2*0.5).
1-Seven million A498 cells were injected subcutaneously. Mice were treated five times a week for 4 weeks, by gavage with placebo (dextrose water vehicle) or C29 (50 mg/kg).
Sections of formol-fixed and paraffin-embedded tumors were incubated with monoclonal anti-Ki67 (clone MIB1, DAKO) or anti-CD31 (clone MEC 13.3, BD Pharmingen) antibodies. A biotinylated secondary antibody (DAKO) was applied and binding was detected with the substrate diaminobenzidine against a hematoxylin counterstain.

O=C(Nc1cccc(Cl)c1)Nc1nc2ccc([N+](=O)[O-])cc2s1 [C29]
IC50 [1]: 4 µM | IC50 [2]: 5 µM | IC50 [3]: 2 µM | IC50 ([4]; CXCR1-/CXCR2-, normal primary kidney cells): 12.5 µM | Selectivity index 15S ([4]; SI = IC50 in normal cell line (15S)/IC50 in this cell line, reference): 1 | effect on primary normal kidney cells (15S) ([4]; even at a higher concentration (5 µmol/L)): no effect | proliferation/survival of uveal melanoma cells (Mel202) ([5]; 2.5 µmol/L): did not affect | IC50 ([5]; Mel202, CXCR1-/CXCR2-): 10 µM | Selectivity index Mel202 ([5]; SI = IC50 in normal cells (15S)/IC50 in Mel202): 1.25 | IC50 ([6]; CXCR1+/CXCR2+): 3.2 µM | proliferation of primary kidney tumor cells TF ([6]; Figure S8A-B): significantly decreased | Selectivity index TF ([6]; SI = IC50 in normal cells (15S)/IC50 in TF): 3.91 | CXCL7-dependent migration of HuVECs [7]: decreased | basal and CXCL5/CXCL7-dependent HuVECs viability [8]: inhibited | effect on cisplatin-resistant CAL27 cell viability [9]: equivalent | IC50 [10]: < 20 µM | ERK/MAP Kinase and PI3K/AKT signaling pathways (p-ERK, p-AKT) [11]: inhibited | caspase 3 activity [12]: increase | apoptotic markers in normal cells (15S) [13]: not the case for normal cells | stability in cellulo (degradation) [14]: No degradation; also recorded: absence of degradation | mRNA level of murine CD31, experimental RCC [15]: decreased | decrease in the tumor weight, RCC ([15]; 50 mg/kg gavage): 40% | proliferation marker Ki-67, experimental RCC ([15]; 50 mg/kg gavage): decreased | weight loss of the animals, RCC model ([15]; 50 mg/kg gavage): did not observe any weight loss | decrease of the tumor volume at the end of the experiment, RCC ([15]; 50 mg/kg gavage five times a week for 4 weeks): more than 65% | PI3K/AKT and ERK pathways in tumor lysates, experimental RCC ([15]; immunoblotting): inhibited PI3K/AKT but not the ERK pathway | mRNA levels of ERL+CXCL cytokines (CXCL5/7/8), experimental RCC ([15]; qPCR, VEGFA not decreased): significantly decreased
